According to patent US6358885B1, “Substituted phenylheterocyclic herbicides” (Mississippi State University, priority 1992, dated 2002):

How the values were obtained:
Assay in all cases: Test F preemergence/postemergence greenhouse plant response rating 0 to 100
Settings in all cases: 0 to 100 scale
ryegrass = format: in vivo, Lolium multiflorum
Text: (§1) Compounds evaluated in this test were formulated in a non-phytoxic solvent and applied to the soil surface before plant seedlings emerged (preemergence application) and to plants that were in the one-to-four leaf stage (postemergence application). A sandy loam soil was used for the preemergence test while a mixture of sandy loam soil and greenhouse potting mix in a 60:40 ratio was used for the postemergence test. Test compounds were applied within approximately one day after planting seeds for the preemergence test. Plantings of these crops and weed species were adjusted to produce plants of appropriate size for the postemergence test. All plant species were grown using normal greenhouse practices. Crop and weed species include winter barley (Hordeum vulgare cv. ‘Igri’), blackgrass (Alopecurus myosuroides), chickweed (Stellaria media), downy brome (Bromus tectorum), field violet (Viola arvensis), galium (Galium aparine), green foxtail (Setaria viridis), kochia (Kochia scoparia), lambsquarters (Chenopodium album), speedwell (Veronica persica), rape (Brassica napus), ryegrass (Lolium multiflorum), sugar beet (Beta vulgaris cv. ‘USl’), sunflower (Helianthus annuus cv. ‘Russian Giant’), spring wheat (Triticum aestivum cv. ‘ERA’), winter wheat (Triticum aestivum cv. ‘Talent’), wild buckwheat (Polygonum convolvulus), wild mustard (Sinapis arvensis), wild oat (Avena fatua), and wild radish (Raphanus raphanistrum). Blackgrass, galium and wild oat were treated at two growth stages. […] Treated plants and untreated controls were maintained in a greenhouse for approximately 21 to 28 days, after which all treated plants were compared to untreated controls and visually evaluated. […] A dash response (-) means no test result.

sugar beet = format: in vivo, Beta vulgaris cv. ‘USl’
Text: as §1

sunflower = format: in vivo, Helianthus annuus cv. ‘Russian Giant’
Text: as §1

spring wheat = format: in vivo, Triticum aestivum cv. ‘ERA’
Text: as §1

winter wheat = format: in vivo, Triticum aestivum cv. ‘Talent’
Text: as §1

wild buckwheat = format: in vivo, Polygonum convolvulus
Text: as §1

wild oat = format: in vivo, Avena fatua
Text: as §1

C#CCOc1cc(-c2nn3c(c2Br)CCCC3)c(F)cc1Cl [Compound 26]
Ryegrass plant response rating (ryegrass; POSTEMERGENCE, Rate 8 g/ha): 0
Ryegrass plant response rating (ryegrass; POSTEMERGENCE, Rate 16 g/ha): 0
Ryegrass plant response rating (ryegrass; POSTEMERGENCE, Rate 32 g/ha): 5
Ryegrass plant response rating (ryegrass; POSTEMERGENCE, Rate 64 g/ha): 20
Ryegrass plant response rating (ryegrass; POSTEMERGENCE, Rate 125 g/ha): 30
Ryegrass plant response rating (ryegrass; POSTEMERGENCE, Rate 250 g/ha): 55
Ryegrass plant response rating (ryegrass; PREEMERGENCE, Rate 4 g/ha): 0
Ryegrass plant response rating (ryegrass; PREEMERGENCE, Rate 8 g/ha): 0
Ryegrass plant response rating (ryegrass; PREEMERGENCE, Rate 16 g/ha): 0
Ryegrass plant response rating (ryegrass; PREEMERGENCE, Rate 32 g/ha): 20
Ryegrass plant response rating (ryegrass; PREEMERGENCE, Rate 64 g/ha): 40
Ryegrass plant response rating (ryegrass; PREEMERGENCE, Rate 125 g/ha): 60
Ryegrass plant response rating (ryegrass; PREEMERGENCE, Rate 250 g/ha): 80
Sugar beet plant response rating (sugar beet; POSTEMERGENCE, Rate 4 g/ha): 100
Sugar beet plant response rating (sugar beet; POSTEMERGENCE, Rate 8 g/ha): 100
Sugar beet plant response rating (sugar beet; POSTEMERGENCE, Rate 16 g/ha): 100
Sugar beet plant response rating (sugar beet; POSTEMERGENCE, Rate 32 g/ha): 100
Sugar beet plant response rating (sugar beet; POSTEMERGENCE, Rate 64 g/ha): 100
Sugar beet plant response rating (sugar beet; POSTEMERGENCE, Rate 125 g/ha): 100
Sugar beet plant response rating (sugar beet; POSTEMERGENCE, Rate 250 g/ha): 100
Sugar beet plant response rating (sugar beet; PREEMERGENCE, Rate 4 g/ha): 0
Sugar beet plant response rating (sugar beet; PREEMERGENCE, Rate 8 g/ha): 50
Sugar beet plant response rating (sugar beet; PREEMERGENCE, Rate 16 g/ha): 60
Sugar beet plant response rating (sugar beet; PREEMERGENCE, Rate 32 g/ha): 70
Sugar beet plant response rating (sugar beet; PREEMERGENCE, Rate 64 g/ha): 100
Sugar beet plant response rating (sugar beet; PREEMERGENCE, Rate 125 g/ha): 100
Sugar beet plant response rating (sugar beet; PREEMERGENCE, Rate 250 g/ha): 100
Sunflower plant response rating (sunflower; POSTEMERGENCE, Rate 4 g/ha): 0
Sunflower plant response rating (sunflower; POSTEMERGENCE, Rate 8 g/ha): 0
Sunflower plant response rating (sunflower; POSTEMERGENCE, Rate 16 g/ha): 0
Sunflower plant response rating (sunflower; POSTEMERGENCE, Rate 32 g/ha): 20
Sunflower plant response rating (sunflower; POSTEMERGENCE, Rate 64 g/ha): 60
Sunflower plant response rating (sunflower; POSTEMERGENCE, Rate 125 g/ha): 100
Sunflower plant response rating (sunflower; POSTEMERGENCE, Rate 250 g/ha): 60
Sunflower plant response rating (sunflower; PREEMERGENCE, Rate 4 g/ha): 0
Sunflower plant response rating (sunflower; PREEMERGENCE, Rate 8 g/ha): 0
Sunflower plant response rating (sunflower; PREEMERGENCE, Rate 16 g/ha): 0
Sunflower plant response rating (sunflower; PREEMERGENCE, Rate 32 g/ha): 0
Sunflower plant response rating (sunflower; PREEMERGENCE, Rate 64 g/ha): 0
Sunflower plant response rating (sunflower; PREEMERGENCE, Rate 125 g/ha): 10
Sunflower plant response rating (sunflower; PREEMERGENCE, Rate 250 g/ha): 60
Wheat (Spring) plant response rating (spring wheat; POSTEMERGENCE, Rate 4 g/ha): 0
Wheat (Spring) plant response rating (spring wheat; POSTEMERGENCE, Rate 8 g/ha): 0
Wheat (Spring) plant response rating (spring wheat; POSTEMERGENCE, Rate 16 g/ha): 0
Wheat (Spring) plant response rating (spring wheat; POSTEMERGENCE, Rate 32 g/ha): 15
Wheat (Spring) plant response rating (spring wheat; POSTEMERGENCE, Rate 64 g/ha): 15
Wheat (Spring) plant response rating (spring wheat; POSTEMERGENCE, Rate 125 g/ha): 15
Wheat (Spring) plant response rating (spring wheat; POSTEMERGENCE, Rate 250 g/ha): 20
Wheat (Spring) plant response rating (spring wheat; PREEMERGENCE, Rate 4 g/ha): 0
Wheat (Spring) plant response rating (spring wheat; PREEMERGENCE, Rate 8 g/ha): 0
Wheat (Spring) plant response rating (spring wheat; PREEMERGENCE, Rate 16 g/ha): 0
Wheat (Spring) plant response rating (spring wheat; PREEMERGENCE, Rate 32 g/ha): 0
Wheat (Spring) plant response rating (spring wheat; PREEMERGENCE, Rate 64 g/ha): 0
Wheat (Spring) plant response rating (spring wheat; PREEMERGENCE, Rate 125 g/ha): 15
Wheat (Spring) plant response rating (spring wheat; PREEMERGENCE, Rate 250 g/ha): 20
Wheat (Winter) plant response rating (winter wheat; POSTEMERGENCE, Rate 4 g/ha): 0
Wheat (Winter) plant response rating (winter wheat; POSTEMERGENCE, Rate 8 g/ha): 0
Wheat (Winter) plant response rating (winter wheat; POSTEMERGENCE, Rate 16 g/ha): 0
Wheat (Winter) plant response rating (winter wheat; POSTEMERGENCE, Rate 32 g/ha): 15
Wheat (Winter) plant response rating (winter wheat; POSTEMERGENCE, Rate 64 g/ha): 20
Wheat (Winter) plant response rating (winter wheat; POSTEMERGENCE, Rate 125 g/ha): 30
Wheat (Winter) plant response rating (winter wheat; POSTEMERGENCE, Rate 250 g/ha): 20
Wheat (Winter) plant response rating (winter wheat; PREEMERGENCE, Rate 4 g/ha): 0
Wheat (Winter) plant response rating (winter wheat; PREEMERGENCE, Rate 8 g/ha): 0
Wheat (Winter) plant response rating (winter wheat; PREEMERGENCE, Rate 16 g/ha): 0
Wheat (Winter) plant response rating (winter wheat; PREEMERGENCE, Rate 32 g/ha): 0
Wheat (Winter) plant response rating (winter wheat; PREEMERGENCE, Rate 64 g/ha): 0
Wheat (Winter) plant response rating (winter wheat; PREEMERGENCE, Rate 125 g/ha): 10
Wheat (Winter) plant response rating (winter wheat; PREEMERGENCE, Rate 250 g/ha): 20
Wild buckwheat plant response rating (wild buckwheat; POSTEMERGENCE, Rate 4 g/ha): 100
Wild buckwheat plant response rating (wild buckwheat; POSTEMERGENCE, Rate 8 g/ha): 100
Wild buckwheat plant response rating (wild buckwheat; POSTEMERGENCE, Rate 16 g/ha): 100
Wild buckwheat plant response rating (wild buckwheat; POSTEMERGENCE, Rate 32 g/ha): 100
Wild buckwheat plant response rating (wild buckwheat; POSTEMERGENCE, Rate 64 g/ha): 100
Wild buckwheat plant response rating (wild buckwheat; POSTEMERGENCE, Rate 125 g/ha): 100
Wild buckwheat plant response rating (wild buckwheat; POSTEMERGENCE, Rate 250 g/ha): 100
Wild buckwheat plant response rating (wild buckwheat; PREEMERGENCE, Rate 4 g/ha): 0
Wild buckwheat plant response rating (wild buckwheat; PREEMERGENCE, Rate 8 g/ha): 0
Wild buckwheat plant response rating (wild buckwheat; PREEMERGENCE, Rate 16 g/ha): 30
Wild buckwheat plant response rating (wild buckwheat; PREEMERGENCE, Rate 32 g/ha): 100
Wild buckwheat plant response rating (wild buckwheat; PREEMERGENCE, Rate 64 g/ha): 100
Wild buckwheat plant response rating (wild buckwheat; PREEMERGENCE, Rate 125 g/ha): 100
Wild buckwheat plant response rating (wild buckwheat; PREEMERGENCE, Rate 250 g/ha): 100
Wild oat (1) plant response rating (wild oat; POSTEMERGENCE, Rate 4 g/ha, stage (1) two to three leaves): 0
Wild oat (2) plant response rating (wild oat; POSTEMERGENCE, Rate 4 g/ha, stage (2) approximately four leaves or initial tillering): 0
Wild oat (1) plant response rating (wild oat; POSTEMERGENCE, Rate 8 g/ha, stage (1) two to three leaves): 0
Wild oat (2) plant response rating (wild oat; POSTEMERGENCE, Rate 8 g/ha, stage (2) approximately four leaves or initial tillering): 0
Wild oat (1) plant response rating (wild oat; POSTEMERGENCE, Rate 16 g/ha, stage (1) two to three leaves): 0
Wild oat (2) plant response rating (wild oat; POSTEMERGENCE, Rate 16 g/ha, stage (2) approximately four leaves or initial tillering): 0
Wild oat (1) plant response rating (wild oat; POSTEMERGENCE, Rate 32 g/ha, stage (1) two to three leaves): 25
Wild oat (2) plant response rating (wild oat; POSTEMERGENCE, Rate 32 g/ha, stage (2) approximately four leaves or initial tillering): 15
Wild oat (1) plant response rating (wild oat; POSTEMERGENCE, Rate 64 g/ha, stage (1) two to three leaves): 40
Wild oat (2) plant response rating (wild oat; POSTEMERGENCE, Rate 64 g/ha, stage (2) approximately four leaves or initial tillering): 15
Wild oat (1) plant response rating (wild oat; POSTEMERGENCE, Rate 125 g/ha, stage (1) two to three leaves): 45
Wild oat (2) plant response rating (wild oat; POSTEMERGENCE, Rate 125 g/ha, stage (2) approximately four leaves or initial tillering): 20
Wild oat (1) plant response rating (wild oat; POSTEMERGENCE, Rate 250 g/ha, stage (1) two to three leaves): 50
Wild oat (2) plant response rating (wild oat; POSTEMERGENCE, Rate 250 g/ha, stage (2) approximately four leaves or initial tillering): 30
Wild oat (1) plant response rating (wild oat; PREEMERGENCE, Rate 4 g/ha, Wild oat (1)): 0
Wild oat (2) plant response rating (wild oat; PREEMERGENCE, Rate 4 g/ha, Wild oat (2)): 0
Wild oat (1) plant response rating (wild oat; PREEMERGENCE, Rate 8 g/ha, Wild oat (1)): 0
Wild oat (2) plant response rating (wild oat; PREEMERGENCE, Rate 8 g/ha, Wild oat (2)): 0
Wild oat (1) plant response rating (wild oat; PREEMERGENCE, Rate 16 g/ha, Wild oat (1)): 0
Wild oat (2) plant response rating (wild oat; PREEMERGENCE, Rate 16 g/ha, Wild oat (2)): 0
Wild oat (1) plant response rating (wild oat; PREEMERGENCE, Rate 32 g/ha, Wild oat (1)): 0
Wild oat (2) plant response rating (wild oat; PREEMERGENCE, Rate 32 g/ha, Wild oat (2)): 0
Wild oat (1) plant response rating (wild oat; PREEMERGENCE, Rate 64 g/ha, Wild oat (1)): 10
Wild oat (2) plant response rating (wild oat; PREEMERGENCE, Rate 64 g/ha, Wild oat (2)): 20
Wild oat (1) plant response rating (wild oat; PREEMERGENCE, Rate 125 g/ha, Wild oat (1)): 20
Wild oat (2) plant response rating (wild oat; PREEMERGENCE, Rate 125 g/ha, Wild oat (2)): 30
Wild oat (1) plant response rating (wild oat; PREEMERGENCE, Rate 250 g/ha, Wild oat (1)): 30
Wild oat (2) plant response rating (wild oat; PREEMERGENCE, Rate 250 g/ha, Wild oat (2)): 50
